This passage reports Ki results from BindingDB's records for PubMed 20126400 (University of Oklahoma, 2010).

A value given as a limit tells only on which side of the number the result lay.

Assay in all cases: Ray2010 Assay 74
The target in assay [1] is T1, Alpha-2A adrenergic receptor (Homo sapiens, UniProt P08913).
T1 sequence (P08913 whole entry): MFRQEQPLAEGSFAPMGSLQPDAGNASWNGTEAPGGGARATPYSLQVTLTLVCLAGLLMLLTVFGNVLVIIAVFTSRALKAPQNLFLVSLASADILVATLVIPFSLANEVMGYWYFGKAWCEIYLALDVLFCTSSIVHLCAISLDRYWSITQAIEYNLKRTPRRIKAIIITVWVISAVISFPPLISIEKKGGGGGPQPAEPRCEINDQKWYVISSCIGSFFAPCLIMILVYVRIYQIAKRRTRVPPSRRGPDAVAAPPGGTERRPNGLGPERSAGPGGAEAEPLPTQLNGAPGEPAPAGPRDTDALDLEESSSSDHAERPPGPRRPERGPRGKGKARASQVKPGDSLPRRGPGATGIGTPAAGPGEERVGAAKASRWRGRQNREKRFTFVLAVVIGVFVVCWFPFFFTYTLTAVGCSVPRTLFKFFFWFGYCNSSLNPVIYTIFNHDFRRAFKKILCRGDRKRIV
An excerpt: (§1) Table S2 shows raw Ki data for the current study combined with data collected from the literature for the ten additional compounds.

Assay [2] has as its target 5-hydroxytryptamine receptor 7 (Homo sapiens, UniProt P34969).
Description: as §1

For assay [3], the target named is Voltage-dependent calcium channel subunit alpha-2/delta-1 (Homo sapiens, UniProt P54289).
Voltage-dependent calcium channel subunit alpha-2/delta-1, sequence (P54289 25-956 limits assumed): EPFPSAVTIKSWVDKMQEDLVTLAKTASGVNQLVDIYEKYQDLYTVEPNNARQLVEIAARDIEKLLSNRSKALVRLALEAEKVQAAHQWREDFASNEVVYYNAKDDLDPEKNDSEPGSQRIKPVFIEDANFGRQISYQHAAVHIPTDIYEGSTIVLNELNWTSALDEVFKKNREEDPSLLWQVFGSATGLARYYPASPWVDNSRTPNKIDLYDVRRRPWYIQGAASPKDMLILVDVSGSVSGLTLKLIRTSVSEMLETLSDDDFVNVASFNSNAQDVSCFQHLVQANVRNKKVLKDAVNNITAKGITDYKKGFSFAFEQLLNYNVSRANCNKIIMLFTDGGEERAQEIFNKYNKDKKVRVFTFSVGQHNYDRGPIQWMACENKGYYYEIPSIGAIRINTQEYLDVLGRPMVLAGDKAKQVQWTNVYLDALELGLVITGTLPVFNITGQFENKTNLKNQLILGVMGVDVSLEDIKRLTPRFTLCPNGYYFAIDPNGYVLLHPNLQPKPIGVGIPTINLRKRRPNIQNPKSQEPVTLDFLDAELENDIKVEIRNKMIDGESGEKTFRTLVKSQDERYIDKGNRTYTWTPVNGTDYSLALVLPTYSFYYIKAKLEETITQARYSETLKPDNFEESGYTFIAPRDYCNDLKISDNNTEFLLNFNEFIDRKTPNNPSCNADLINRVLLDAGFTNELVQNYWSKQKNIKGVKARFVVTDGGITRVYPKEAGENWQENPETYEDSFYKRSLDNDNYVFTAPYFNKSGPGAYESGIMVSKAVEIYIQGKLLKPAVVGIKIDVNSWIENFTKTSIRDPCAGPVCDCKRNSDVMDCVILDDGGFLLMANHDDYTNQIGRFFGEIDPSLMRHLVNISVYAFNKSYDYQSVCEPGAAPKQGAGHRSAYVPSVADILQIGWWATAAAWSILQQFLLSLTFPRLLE
Voltage-dependent calcium channel subunit alpha-2/delta-1, sequence (P54289 957-1103 limits assumed): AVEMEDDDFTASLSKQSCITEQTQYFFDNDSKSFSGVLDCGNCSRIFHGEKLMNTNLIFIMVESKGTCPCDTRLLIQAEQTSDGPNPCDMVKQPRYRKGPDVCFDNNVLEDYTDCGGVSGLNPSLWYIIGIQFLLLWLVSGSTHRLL
Description: as §1

Assay [4] concerns the target T2, Alpha-2C adrenergic receptor (Homo sapiens, UniProt P18825).
T2 sequence (P18825 whole entry): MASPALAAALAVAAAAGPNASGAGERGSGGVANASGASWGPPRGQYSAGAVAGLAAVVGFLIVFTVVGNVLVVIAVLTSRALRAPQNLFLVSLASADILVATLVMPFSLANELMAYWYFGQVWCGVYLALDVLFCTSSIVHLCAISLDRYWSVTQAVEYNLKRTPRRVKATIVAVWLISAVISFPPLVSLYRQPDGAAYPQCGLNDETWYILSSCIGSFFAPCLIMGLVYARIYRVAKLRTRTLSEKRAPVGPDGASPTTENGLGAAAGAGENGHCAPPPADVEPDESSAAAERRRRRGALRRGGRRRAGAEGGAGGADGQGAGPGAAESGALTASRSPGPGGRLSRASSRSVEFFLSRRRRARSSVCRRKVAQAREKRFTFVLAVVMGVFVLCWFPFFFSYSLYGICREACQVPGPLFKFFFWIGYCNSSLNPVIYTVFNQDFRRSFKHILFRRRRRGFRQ
Description: as §1

Assay [5] deals with Sigma intracellular receptor 2 (Homo sapiens, UniProt Q5BJF2).
Sigma intracellular receptor 2, sequence (Q5BJF2 whole entry): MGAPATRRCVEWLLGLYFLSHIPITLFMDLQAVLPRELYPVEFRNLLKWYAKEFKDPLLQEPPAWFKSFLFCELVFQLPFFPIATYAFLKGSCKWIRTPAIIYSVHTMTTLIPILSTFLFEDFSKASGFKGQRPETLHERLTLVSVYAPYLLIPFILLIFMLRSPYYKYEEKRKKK
Description: as §1

For a further assay, the target named is T3, Vasopressin V1b receptor (Homo sapiens, UniProt P47901).
T3 sequence (P47901 whole entry): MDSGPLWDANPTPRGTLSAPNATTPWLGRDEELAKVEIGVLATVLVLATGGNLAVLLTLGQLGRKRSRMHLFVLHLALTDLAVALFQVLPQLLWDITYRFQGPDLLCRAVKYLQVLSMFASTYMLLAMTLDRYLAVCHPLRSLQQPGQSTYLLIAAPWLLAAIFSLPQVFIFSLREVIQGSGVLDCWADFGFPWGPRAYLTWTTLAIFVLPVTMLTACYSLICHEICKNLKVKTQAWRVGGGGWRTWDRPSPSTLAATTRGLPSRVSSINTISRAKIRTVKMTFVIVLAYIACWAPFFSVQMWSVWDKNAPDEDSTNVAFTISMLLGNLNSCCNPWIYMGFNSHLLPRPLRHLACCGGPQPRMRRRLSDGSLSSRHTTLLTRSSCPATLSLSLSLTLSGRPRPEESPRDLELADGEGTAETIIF
Description: as §1

The target of a further assay is Nischarin (Homo sapiens, UniProt Q9Y2I1).
Description: as §1

In assay [6] the target is Muscarinic acetylcholine receptor M3 (Homo sapiens, UniProt P20309).
Muscarinic acetylcholine receptor M3, sequence (P20309 whole entry): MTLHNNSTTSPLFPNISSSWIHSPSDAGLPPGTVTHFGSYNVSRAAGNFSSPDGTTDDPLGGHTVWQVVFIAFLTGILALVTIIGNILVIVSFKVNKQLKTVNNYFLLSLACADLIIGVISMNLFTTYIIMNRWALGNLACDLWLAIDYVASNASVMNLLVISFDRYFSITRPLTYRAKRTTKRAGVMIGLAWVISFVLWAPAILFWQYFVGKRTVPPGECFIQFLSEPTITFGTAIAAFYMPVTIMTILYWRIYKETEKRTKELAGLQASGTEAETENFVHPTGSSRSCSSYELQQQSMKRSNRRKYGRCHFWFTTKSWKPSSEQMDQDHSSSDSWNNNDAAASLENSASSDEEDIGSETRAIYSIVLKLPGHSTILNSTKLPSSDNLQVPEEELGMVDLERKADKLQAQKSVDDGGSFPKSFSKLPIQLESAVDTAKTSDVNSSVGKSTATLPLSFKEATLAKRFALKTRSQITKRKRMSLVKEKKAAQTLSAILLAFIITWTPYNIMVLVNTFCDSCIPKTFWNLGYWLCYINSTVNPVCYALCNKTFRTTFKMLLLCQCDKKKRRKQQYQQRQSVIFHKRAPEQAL
Description: as §1

In another assay the target is Cannabinoid receptor 2 (Homo sapiens, UniProt P34972).
Cannabinoid receptor 2, sequence (P34972 whole entry): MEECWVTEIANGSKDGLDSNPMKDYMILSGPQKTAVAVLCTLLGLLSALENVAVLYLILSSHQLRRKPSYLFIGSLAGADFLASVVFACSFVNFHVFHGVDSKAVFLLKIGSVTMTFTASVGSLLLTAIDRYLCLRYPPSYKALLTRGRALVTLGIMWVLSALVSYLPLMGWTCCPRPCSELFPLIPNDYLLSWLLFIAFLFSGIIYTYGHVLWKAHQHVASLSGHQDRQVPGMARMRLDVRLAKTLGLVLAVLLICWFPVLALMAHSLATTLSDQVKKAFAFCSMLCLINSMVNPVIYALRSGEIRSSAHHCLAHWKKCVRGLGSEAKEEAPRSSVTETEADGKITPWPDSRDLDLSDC
Description: as §1

A further assay has as its target Cannabinoid receptor 1 (Homo sapiens, UniProt P21554).
Description: as §1

A further assay deals with Histamine H3 receptor (Homo sapiens, UniProt Q9Y5N1).
Histamine H3 receptor, sequence (Q9Y5N1 whole entry): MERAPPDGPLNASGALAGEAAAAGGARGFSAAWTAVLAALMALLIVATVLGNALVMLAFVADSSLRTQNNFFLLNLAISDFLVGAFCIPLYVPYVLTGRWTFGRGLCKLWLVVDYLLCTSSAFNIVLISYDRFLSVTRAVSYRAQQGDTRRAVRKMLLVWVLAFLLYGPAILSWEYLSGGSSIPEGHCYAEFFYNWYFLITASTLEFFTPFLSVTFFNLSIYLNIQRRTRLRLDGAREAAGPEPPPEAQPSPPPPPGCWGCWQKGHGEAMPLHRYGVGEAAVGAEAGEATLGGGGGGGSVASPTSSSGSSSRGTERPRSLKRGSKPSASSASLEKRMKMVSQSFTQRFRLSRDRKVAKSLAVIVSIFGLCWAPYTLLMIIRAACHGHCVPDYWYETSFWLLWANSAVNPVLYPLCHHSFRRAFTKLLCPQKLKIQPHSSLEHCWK
Description: as §1

In assay [7] the target is T4, Prostaglandin E2 receptor EP3 subtype (Homo sapiens, UniProt P43115).
T4 sequence (P43115 whole entry): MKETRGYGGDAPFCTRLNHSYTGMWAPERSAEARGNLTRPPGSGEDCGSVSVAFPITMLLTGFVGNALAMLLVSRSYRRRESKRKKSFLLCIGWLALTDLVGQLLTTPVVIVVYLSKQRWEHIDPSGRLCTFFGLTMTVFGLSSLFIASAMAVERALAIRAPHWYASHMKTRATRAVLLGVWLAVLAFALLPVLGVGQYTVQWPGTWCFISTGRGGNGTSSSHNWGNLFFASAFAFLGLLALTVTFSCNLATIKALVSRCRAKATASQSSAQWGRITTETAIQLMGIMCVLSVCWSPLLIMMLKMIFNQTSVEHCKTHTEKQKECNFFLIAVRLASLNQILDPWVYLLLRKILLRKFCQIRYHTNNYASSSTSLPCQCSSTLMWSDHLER
Description: as §1

The target in assay [8] is Beta-2 adrenergic receptor (Homo sapiens, UniProt P07550).
Beta-2 adrenergic receptor, sequence (P07550 whole entry): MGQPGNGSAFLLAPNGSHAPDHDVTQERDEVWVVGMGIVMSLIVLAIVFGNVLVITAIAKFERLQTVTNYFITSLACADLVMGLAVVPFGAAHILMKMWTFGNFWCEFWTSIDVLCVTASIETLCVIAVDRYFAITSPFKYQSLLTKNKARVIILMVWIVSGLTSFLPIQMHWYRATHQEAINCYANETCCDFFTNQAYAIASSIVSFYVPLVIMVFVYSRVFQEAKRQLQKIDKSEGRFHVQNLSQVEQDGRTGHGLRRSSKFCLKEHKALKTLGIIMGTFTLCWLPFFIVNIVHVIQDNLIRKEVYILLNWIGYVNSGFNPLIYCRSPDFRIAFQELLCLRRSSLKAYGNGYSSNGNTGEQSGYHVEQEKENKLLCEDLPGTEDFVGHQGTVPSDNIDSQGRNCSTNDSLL
Description: as §1

A further assay addresses Vasopressin V1a receptor (Homo sapiens, UniProt P37288).
Description: as §1

For assay [9], the target named is Sigma non-opioid intracellular receptor 1 (Homo sapiens, UniProt Q99720).
Sigma non-opioid intracellular receptor 1, sequence (Q99720 whole entry): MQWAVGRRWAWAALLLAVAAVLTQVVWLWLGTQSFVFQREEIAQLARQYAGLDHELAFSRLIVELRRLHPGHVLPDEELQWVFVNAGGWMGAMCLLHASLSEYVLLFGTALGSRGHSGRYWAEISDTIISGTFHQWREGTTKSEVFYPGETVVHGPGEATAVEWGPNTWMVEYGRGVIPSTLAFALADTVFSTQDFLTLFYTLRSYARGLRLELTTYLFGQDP
Description: as §1

5-hydroxytryptamine receptor 7, sequence (P34969 whole entry): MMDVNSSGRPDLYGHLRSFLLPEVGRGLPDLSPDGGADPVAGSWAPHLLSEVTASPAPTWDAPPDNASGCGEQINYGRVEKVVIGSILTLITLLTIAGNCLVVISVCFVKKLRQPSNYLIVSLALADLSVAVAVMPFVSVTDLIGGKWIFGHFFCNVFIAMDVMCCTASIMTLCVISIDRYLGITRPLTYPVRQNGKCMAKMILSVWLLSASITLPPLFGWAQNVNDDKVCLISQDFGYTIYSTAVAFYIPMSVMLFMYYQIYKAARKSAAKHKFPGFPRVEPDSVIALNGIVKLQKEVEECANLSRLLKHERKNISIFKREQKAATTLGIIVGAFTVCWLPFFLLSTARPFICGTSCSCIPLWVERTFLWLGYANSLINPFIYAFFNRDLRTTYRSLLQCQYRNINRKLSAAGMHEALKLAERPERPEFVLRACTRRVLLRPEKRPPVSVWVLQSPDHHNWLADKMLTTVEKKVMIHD
Cannabinoid receptor 1, sequence (P21554 whole entry): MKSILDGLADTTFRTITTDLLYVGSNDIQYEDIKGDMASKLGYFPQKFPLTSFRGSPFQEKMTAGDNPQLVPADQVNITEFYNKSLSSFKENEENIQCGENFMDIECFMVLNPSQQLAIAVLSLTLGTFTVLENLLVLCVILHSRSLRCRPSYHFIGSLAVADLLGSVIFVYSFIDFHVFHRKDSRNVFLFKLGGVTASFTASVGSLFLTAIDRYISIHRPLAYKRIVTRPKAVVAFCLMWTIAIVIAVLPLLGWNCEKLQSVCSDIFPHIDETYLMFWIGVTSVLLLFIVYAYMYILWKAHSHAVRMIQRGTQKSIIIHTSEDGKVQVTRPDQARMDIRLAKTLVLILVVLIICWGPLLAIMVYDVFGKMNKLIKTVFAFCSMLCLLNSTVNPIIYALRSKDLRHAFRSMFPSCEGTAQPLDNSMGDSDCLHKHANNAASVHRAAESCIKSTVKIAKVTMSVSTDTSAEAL
Vasopressin V1a receptor, sequence (P37288 whole entry): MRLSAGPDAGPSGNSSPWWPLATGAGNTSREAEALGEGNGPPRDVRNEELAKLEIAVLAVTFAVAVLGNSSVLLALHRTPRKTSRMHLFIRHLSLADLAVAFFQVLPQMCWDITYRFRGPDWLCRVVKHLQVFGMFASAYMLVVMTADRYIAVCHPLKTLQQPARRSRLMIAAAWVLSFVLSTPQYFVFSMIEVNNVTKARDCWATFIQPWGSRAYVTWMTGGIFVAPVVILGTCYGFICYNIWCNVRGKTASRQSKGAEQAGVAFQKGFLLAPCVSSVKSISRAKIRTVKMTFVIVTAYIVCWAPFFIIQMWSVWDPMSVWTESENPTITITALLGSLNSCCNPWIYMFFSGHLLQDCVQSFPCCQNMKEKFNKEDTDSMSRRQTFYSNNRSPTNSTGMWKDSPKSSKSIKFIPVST

Turning to `CN(C)CCc1c[nH]c2cc(F)ccc12` [6-f-dmt], the Ki in [1] is more than 10 µM; in [2], 0.0408 µM; in [3] it was more than 10 µM; in assay [4], 0.149 µM; in assay [5], 7.13 µM; on Vasopressin V1b receptor it was more than 10 µM. The Ki at Nischarin is 0.898 µM; in assay [6], more than 10 µM; on Cannabinoid receptor 2, more than 10 µM; on Cannabinoid receptor 1, more than 10 µM; on Histamine H3 receptor it was more than 10 µM; in [7], more than 10 µM. The inhibition constant (Ki) in assay [8] was more than 10 µM; at Vasopressin V1a receptor, more than 10 µM; in [9] it was 6.89 µM.

Consider `CCOc1cc(OC)c(CC(C)N)cc1OC` (stereo not given), for which the inhibition constant (Ki) in assay [1] was more than 10 µM; in assay [2] it was 7.16 µM; in assay [3] it was more than 10 µM; in assay [4], more than 10 µM; in [5], more than 10 µM; on Vasopressin V1b receptor it was more than 10 µM. Also, the inhibitory constant (Ki) (at Nischarin; in assay [6]; on Cannabinoid receptor 2; at Cannabinoid receptor 1; at Histamine H3 receptor; in assay [7]) was more than 10 µM throughout. In addition, the Ki in assay [8] is more than 10 µM; at Vasopressin V1a receptor, more than 10 µM; in assay [9], 5.08 µM.

Consider `COc1ccc2[nH]cc(CCN(C(C)C)C(C)C)c2c1` [5-meo-dipt], for which the inhibitory constant (Ki) was more than 10 µM in assay [1]; 1.23 µM in assay [2]; more than 10 µM in [3]; 2.86 µM in assay [4]; 3 µM in [5]; more than 10 µM on Vasopressin V1b receptor. Also, the Ki is 0.76 µM at Nischarin; more than 10 µM in assay [6]; more than 10 µM on Cannabinoid receptor 2; more than 10 µM on Cannabinoid receptor 1; more than 10 µM on Histamine H3 receptor; more than 10 µM in assay [7]. Also, the inhibition constant (Ki) in [8] is more than 10 µM; on Vasopressin V1a receptor, more than 10 µM; in assay [9], 9.44 µM.
